From publication PMC12974487, “Inhibition of FicD-mediated AMPylation and deAMPylation by isoprenoid diphosphates” (Proceedings of the National Academy of Sciences of the …, 2026)
Where a chain is given by its changes, count along the chain named.

Assays:
[1] = target: T1, BiP (Homo sapiens, UniProt P11021, T229A); assay: DSF specificity control with BiP; type: binding; conditions: same increasing metabolite concentrations
T1 construct: BiPT229A (residues 27-654) was expressed as an 6xHis-Thrombin-T7 n-terminal fusion; 6xHis-Thrombin-T7 (N); made in house; host or cells: Rosetta(DE3) E. coli
T1 sequence (P11021 27-654 T229A): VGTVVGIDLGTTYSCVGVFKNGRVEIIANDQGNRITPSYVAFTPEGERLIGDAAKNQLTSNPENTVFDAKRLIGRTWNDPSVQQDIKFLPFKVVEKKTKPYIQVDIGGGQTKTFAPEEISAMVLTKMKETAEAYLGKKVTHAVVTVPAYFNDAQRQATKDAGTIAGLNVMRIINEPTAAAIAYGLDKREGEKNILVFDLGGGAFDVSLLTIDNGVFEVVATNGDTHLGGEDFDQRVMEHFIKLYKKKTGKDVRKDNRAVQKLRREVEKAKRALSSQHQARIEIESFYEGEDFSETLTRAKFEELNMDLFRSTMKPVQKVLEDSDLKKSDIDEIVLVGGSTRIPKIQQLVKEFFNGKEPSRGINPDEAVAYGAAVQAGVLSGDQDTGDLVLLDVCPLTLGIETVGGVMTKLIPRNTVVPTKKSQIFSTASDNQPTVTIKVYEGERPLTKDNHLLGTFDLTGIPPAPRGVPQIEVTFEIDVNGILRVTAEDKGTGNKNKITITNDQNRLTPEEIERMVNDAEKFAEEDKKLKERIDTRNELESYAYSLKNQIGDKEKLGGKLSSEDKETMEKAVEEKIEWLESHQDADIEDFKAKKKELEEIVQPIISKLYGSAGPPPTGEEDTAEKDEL

[2] = target: T2, FicD^WT (Homo sapiens, UniProt Q9BVA6); assay: In vitro AMPylation of Δ26hBiP^T229A by FicD^WT (Western blot); type: biochemical; conditions: for inhibition of AMPylation of Δ26hBiP^T229A by FicD^WT: 100 μM metabolite, 500 μM ATP, 5 mM MgCl2; for concentration at which inhibition of AMPylation started: dose-response Western blot, FicD^WT
T2 construct: soluble ER luminal domain (residues 105 to 458) of wild-type human FicD; 6xHis-Sumo (N, cleaved yes); made in house; host or cells: Rosetta(DE3) E. coli
T2 sequence (Q9BVA6 105-458): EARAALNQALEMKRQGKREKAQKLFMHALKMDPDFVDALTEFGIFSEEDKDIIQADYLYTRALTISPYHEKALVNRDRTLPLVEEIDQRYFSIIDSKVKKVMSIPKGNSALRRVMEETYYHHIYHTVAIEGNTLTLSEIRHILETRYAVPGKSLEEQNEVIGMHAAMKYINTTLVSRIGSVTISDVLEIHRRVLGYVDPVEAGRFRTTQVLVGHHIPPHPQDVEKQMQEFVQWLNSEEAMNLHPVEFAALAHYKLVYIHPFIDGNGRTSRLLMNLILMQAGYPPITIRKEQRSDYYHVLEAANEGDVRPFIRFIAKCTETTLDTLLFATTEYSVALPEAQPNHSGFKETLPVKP
Excerpt: (§1) We next sought to assess the effects of FPP, GPP, and isoprenoid analogues on FicD activity. To accurately judge the effects of small molecules on FicD AMPylation activity, we used the ATPase defective BiP^T229A mutant as substrate ([22], [49], [50]). Loss of ATP hydrolysis by the BiP mutant ensures: 1. conformational homogeneity of the BiP protein substrate; 2. lack of BiP competition for the ATP substrate; and 3. no production of ADP, a competitive inhibitor for ATP. In addition, we deleted the first 25 amino acids of BiP for ease with its purification and solubility. […]
For AMPylation assays with FicD and BiP, Δ104FicDWT and Δ26hBiPT229A were combined at a ratio
of 1:80 in buffer containing 25mM HEPES pH 7.4, 100mM KCl, 5mM MgCl2, 500μM ATP, 1mM
DTT, and small molecule where indicated. Assays with Δ104FicDWT were incubated for 1 hour.
the amount of FicD as in reactions containing FicDWT and were incubated at 37C for 4.5 hours. […]

[3] = target: T2, FicD^WT; assay: In vitro deAMPylation of Δ26hBiP^T229A-AMP by FicD^WT (Western blot); type: biochemical; conditions: for inhibition of deAMPylation activity of FicD^WT: 100 μM metabolite, 5 mM MgCl2; for concentration at which inhibition of deAMPylation started: dose-response Western blot, FicD^WT
Excerpt: as §1
For deAMPylation assays with FicD and BiP, Δ26hBiPT229A was in-vitro AMPylated by […]
5mM MgCl2, 500uM ATP, 0.5% CHAPS, 1mM DTT. After one hour of incubation at 30-37C, the entire reaction mix was transferred into an Amicon 0.5mL 50kDa MWCO concentrator (cat no.
7.4/150mM NaCl/10% glycerol/1mM DTT was added to the concentrated AMPylation reaction and then spun down again at 14,000 x g at 4C for 5-10 minutes. This step was repeated four times to buffer exchange AMPylated Δ26hBiPT229A.
Δ104hFicDWT and Δ26hBiPT229A-AMP were combined at a ratio of 1:80 in buffer containing 25mM HEPES pH 7.4, 100mM KCl, 5mM MgCl2, 1mM DTT and the indicated small molecule where applicable. Reactions were incubated at 37C for 1 hour and stopped by the addition EDTA. 5X SDS sample buffer (250mM Tris pH 6.8, 10% Lithium dodecyl sulfate, 50% glycerol, 50mM DTT, 0.05% Bromophenol blue) was then added to the reactions and reactions were heated for 5 minutes at […]

[4] = target: T3, FicD^R374C (Homo sapiens, UniProt Q9BVA6, R374C); assay: DSF with FicD^R374C variant; type: binding
T3 construct: Wild-type FicD (residues 105-458) and all mutants were expressed as N-terminal 6xHis-Sumo fusions; 6xHis-Sumo (N, cleaved yes); made in house; host or cells: Rosetta(DE3) E. coli
T3 sequence (Q9BVA6 105-458 R374C): T2 sequence (Q9BVA6 105-458) with R270C

[5] = substrate exceeds FPP by two to three orders of magnitude

Compound	change in melt curves or Tm of BiP [1]	inhibition of AMPylation of Δ26hBiP^T229A by FicD^WT [2]	concentration at which inhibition of AMPylation started [2] [µM]	apparent EC50 of inhibition of AMPylation [2, 5]	inhibition of deAMPylation activity of FicD^WT [3]	concentration at which inhibition of deAMPylation started [3] [µM]	apparent EC50 of inhibition of deAMPylation [3, 5]	binding to R374C variant by DSF (melting curve shift) ([4]; absence of Mg2+)	binding to R374C variant by DSF (melting curve shift) ([4]; addition of Mg2+)
CC(C)=CCC/C(C)=C/CC/C(C)=C/COP(=O)(O)OP(=O)(O)O [FPP, farnesyl-pyrophosphate]	neither GPP nor FPP elicited a change	inhibited	5	low micromolar range	inhibited	1	low micromolar range	caused shifts in the melting curves	enhanced the binding
CC(C)=CCC/C(C)=C/COP(=O)(O)OP(=O)(O)O [GPP, geranyl-pyrophosphate]	neither GPP nor FPP elicited a change	inhibited	20		inhibited	5			
